Experimental data as given in ChEMBL document CHEMBL3817752, “Antimycobacterial activity of new N(1)-[1-[1-aryl-3-[4-(1H-imidazol-1-yl)phenyl]-3-oxo]propyl]-pyridine-2-carboxamidrazone derivatives” (Bioorg Med Chem Lett, 2016).
≈ marks a conversion by molar mass, not a printed value. Calls of active or inactive are those of the source. No cut-off for these calls is given here.

Experiments:
[1] = Cytotoxicity against African green monkey Vero cells after 72 hrs by MTT assay; type: cell-based; conditions: chlorocebus sabaeus
[2] = tested on: Mycobacterium kansasii; experiment: Antimycobacterial activity against Mycobacterium kansasii NCTC 10268 after 7 days by resazurin microtiter assay; type: functional; conditions: NCTC 10268, 168 h
[3] = tested on: Mycobacterium gordonae; experiment: Antimycobacterial activity against Mycobacterium gordonae NCTC 10267 after 7 days by resazurin microtiter assay; type: functional; conditions: NCTC 10267, 168 h
[4] = tested on: Mycobacterium marinum; experiment: Antimycobacterial activity against Mycobacterium marinum CIP 6423 after 7 days by resazurin microtiter assay; type: functional; conditions: CIP 6423, 168 h
[5] = tested on: Mycobacterium intracellulare; experiment: Antimycobacterial activity against Mycobacterium intracellulare NCTC 10425 after 7 days by resazurin microtiter assay; type: functional; conditions: NCTC 10425, 168 h
[6] = tested on: Mycobacterium scrofulaceum; experiment: Antimycobacterial activity against Mycobacterium scrofulaceum NCTC 10803 after 7 days by resazurin microtiter assay; type: functional; conditions: 168 h
[7] = tested on: Mycobacterium avium; experiment: Antimycobacterial activity against Mycobacterium avium NCTC 08559 after 7 days by resazurin microtiter assay; type: functional; conditions: NCTC 08559, 168 h
[8] = tested on: Candida albicans; experiment: Antimicrobial activity against Candida albicans 685 clinical isolate at 20 ug per disk after 18 to 24 hrs by agar diffusion assay; type: functional; conditions: read-out: DIZ
[9] = tested on: Staphylococcus aureus; experiment: Antimicrobial activity against Staphylococcus aureus ATCC 25923 at 20 ug per disk after 18 to 24 hrs by agar diffusion assay; type: functional; conditions: read-out: DIZ
[10] = molecular target: T1, Sterol 14alpha-demethylase (Mycobacterium tuberculosis) (UniProt P9WPP9); experiment: Binding affinity to N-terminal His-tagged Mycobacterium tuberculosis H37Rv ATCC 25618 CYP51 expressed in Escherichia coli Rosetta (DE3) by spectrophotometric analysis
T1 sequence (whole entry): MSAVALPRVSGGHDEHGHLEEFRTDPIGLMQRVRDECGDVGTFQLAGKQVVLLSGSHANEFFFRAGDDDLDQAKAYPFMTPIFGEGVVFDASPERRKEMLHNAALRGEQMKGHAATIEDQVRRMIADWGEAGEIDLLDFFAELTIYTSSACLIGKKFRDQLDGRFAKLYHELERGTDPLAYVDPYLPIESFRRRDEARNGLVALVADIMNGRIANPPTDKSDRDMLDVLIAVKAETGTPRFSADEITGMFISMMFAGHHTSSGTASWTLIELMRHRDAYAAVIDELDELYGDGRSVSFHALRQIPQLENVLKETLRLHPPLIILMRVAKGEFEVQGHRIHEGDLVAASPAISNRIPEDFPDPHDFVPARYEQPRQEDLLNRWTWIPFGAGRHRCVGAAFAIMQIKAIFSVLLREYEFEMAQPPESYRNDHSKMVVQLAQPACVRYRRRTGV

[11] = tested on: Escherichia coli; experiment: Antimicrobial activity against Escherichia coli ATCC 25922 at 20 ug per disk after 18 to 24 hrs by agar diffusion assay; type: functional; conditions: read-out: DIZ
[12] = tested on: Mycobacterium tuberculosis; experiment: Antimycobacterial activity against Mycobacterium tuberculosis H37Ra […] after 7 days by resazurin microtiter assay; type: functional; conditions: 168 h
[13] = tested on: Candida albicans; experiment: Antimicrobial activity against Candida albicans 685 clinical isolate at 5 ug per disk after 18 to 24 hrs by agar diffusion assay; type: functional; conditions: read-out: DIZ
[14] = tested on: Escherichia coli; experiment: Antimicrobial activity against Escherichia coli ATCC 25922 at 30 ug per disk after 18 to 24 hrs by agar diffusion assay; type: functional; conditions: read-out: DIZ
[15] = tested on: Staphylococcus aureus; experiment: Antimicrobial activity against Staphylococcus aureus ATCC 25923 at 30 ug per disk after 18 to 24 hrs by agar diffusion assay; type: functional; conditions: read-out: DIZ
[16] = Selectivity index, ratio of CC50 for African green monkey Vero cells to MIC for Mycobacterium tuberculosis H37Ra […]; type: toxicity, cell-based; conditions: read-out: Selectivity Index

Compound | CC50 at 72 h [1] | MIC [2] | MIC [3] | MIC [4] | MIC [5] | MIC [6] | MIC [7] | zone of inhibition at 20 µg/disc [8] | zone of inhibition at 20 µg/disc [9] | Activity [10] | zone of inhibition at 20 µg/disc [11] | MIC [12] | zone of inhibition at 5 µg/disc [13] | zone of inhibition at 30 µg/disc [14] | zone of inhibition at 30 µg/disc [15] | selectivity ratio [16]
N/C(=N/NC(CC(=O)c1ccc(-n2ccnc2)cc1)c1ccccc1F)c1ccccn1 (stereo not drawn) | 62.1 µM | 18.7 µM (≈ 8.01 µg/mL) | 4.7 µM (≈ 2.01 µg/mL) | 18.7 µM (≈ 8.01 µg/mL) | 74.7 µM (≈ 32 µg/mL) | 18.7 µM (≈ 8.01 µg/mL) | 74.7 µM (≈ 32 µg/mL) | 5 mm | 14 mm | inactive | 7 mm | 17.6 µM (≈ 7.54 µg/mL) | – | – | – | –
N/C(=N/NC(CC(=O)c1ccc(-n2ccnc2)cc1)c1ccc(Cl)cc1Cl)c1ccccn1 (stereo not drawn) | 27.8 µM | 4.2 µM (≈ 2.01 µg/mL) | 9 µM (≈ 4.31 µg/mL) | 33.3 µM (≈ 16 µg/mL) | 33.3 µM (≈ 16 µg/mL) | 16.7 µM (≈ 8.01 µg/mL) | 33.3 µM (≈ 16 µg/mL) | 8 mm | 17 mm | inactive | 6 mm | 9 µM (≈ 4.31 µg/mL) | – | – | – | –
N/C(=N/NC(CC(=O)c1ccc(-n2ccnc2)cc1)c1ccc(Cl)cc1)c1ccccn1 (stereo not drawn) | 78.8 µM | 9 µM (≈ 4 µg/mL) | 4.5 µM (≈ 2 µg/mL) | 18 µM (≈ 8.01 µg/mL) | 72 µM (≈ 32 µg/mL) | 18 µM (≈ 8.01 µg/mL) | 72 µM (≈ 32 µg/mL) | 9 mm | 20 mm | inactive | 8 mm | 9 µM (≈ 4 µg/mL) | – | – | – | –
C[C@@H]1[C@H](O)[C@@H](C)/C=C/C=C/C=C/C=C/C=C/C=C/C=C/[C@H](O[C@@H]2O[C@H](C)[C@@H](O)[C@H](N)[C@@H]2O)C[C@@H]2O[C@](O)(C[C@@H](O)C[C@@H](O)[C@H](O)CC[C@@H](O)C[C@@H](O)CC(=O)O[C@H]1C)C[C@H](O)[C@H]2C(=O)O [AMPHOTERICIN B] | – | – | – | – | – | – | – | – | – | – | – | – | 16 mm | – | – | –
N/C(=N/NC(CC(=O)c1ccc(-n2ccnc2)cc1)c1ccccc1)c1ccccn1 (stereo not drawn) | 63.5 µM | 19.5 µM (≈ 8 µg/mL) | 9.7 µM (≈ 3.98 µg/mL) | 19.5 µM (≈ 8 µg/mL) | 78 µM (≈ 32 µg/mL) | 19.5 µM (≈ 8 µg/mL) | 78 µM (≈ 32 µg/mL) | 5 mm | 14 mm | inactive | 7 mm | 19.5 µM (≈ 8 µg/mL) | – | – | – | –
N/C(=N/NC(CC(=O)c1ccc(-n2ccnc2)cc1)c1ccc(F)cc1)c1ccccn1 (stereo not drawn) | 78.8 µM | 9.3 µM (≈ 3.98 µg/mL) | 18.7 µM (≈ 8.01 µg/mL) | 18.7 µM (≈ 8.01 µg/mL) | 74.7 µM (≈ 32 µg/mL) | 18.7 µM (≈ 8.01 µg/mL) | 74.7 µM (≈ 32 µg/mL) | 6 mm | 20 mm | inactive | 6 mm | 9.3 µM (≈ 3.98 µg/mL) | – | – | – | –
N/C(=N/NC(CC(=O)c1ccc(-n2ccnc2)cc1)c1ccccc1[N+](=O)[O-])c1ccccn1 (stereo not drawn) | 48 µM | 17.6 µM (≈ 8.02 µg/mL) | 8.8 µM (≈ 4.01 µg/mL) | 35.1 µM (≈ 16 µg/mL) | 140 µM (≈ 63.8 µg/mL) | 8.8 µM (≈ 4.01 µg/mL) | 70.3 µM (≈ 32 µg/mL) | 4 mm | 13 mm | inactive | 6 mm | 8.8 µM (≈ 4.01 µg/mL) | – | – | – | –
CC(=O)OCC1=C(C(=O)O)N2C(=O)[C@@H](NC(=O)Cc3cccs3)[C@H]2SC1 [CEPHALOTHIN] | – | – | – | – | – | – | – | – | – | – | – | – | – | 11 mm | 31 mm | –
N/C(=N/NC(CC(=O)c1ccc(-n2ccnc2)cc1)c1ccc(Br)cc1)c1ccccn1 (stereo not drawn) | 298 µM | 4.1 µM (≈ 2.01 µg/mL) | 2 µM (≈ 0.979 µg/mL) | 8.2 µM (≈ 4.01 µg/mL) | 131 µM (≈ 64.1 µg/mL) | 16.3 µM (≈ 7.98 µg/mL) | 131 µM (≈ 64.1 µg/mL) | 8 mm | 20 mm | inactive | 6 mm | 16.3 µM (≈ 7.98 µg/mL) | – | – | – | 18
